Laboratory results: patent publication US20230129595A1, “PARENTERAL NUTRITION SOLUTION COMPRISING A SELENIUM SOURCE” (BAXTER INTERNATIONAL INC., priority 2019, published 2023)

Experiments:
[1] = Storage stability of selenium sources in a separate chamber (Example 3); details: separated chamber, alone or together with other trace elements; after 6 months storage at 40° C./25% RH
Source text: Selenate was introduced with other trace elements into a separate chamber from macronutrients.

[2] = Selenium stability in sterilized multi trace element solutions, recovery of initial concentration (Example 4, FIGS. 1-3); details: for Selenium concentration during storage: FIGS. 1-3
Source text: FIGS. 1-3: The recovery of the initial concentration of the different trace elements in percent (%) is indicated on the Y-axis of the Figures. The analyzed timepoints are is indicated on the X-axis. The timepoint −0.5 corresponds to the results of TE dosage on unsterilized sample at T0. Timepoint 0 corresponds to the results of TE dosage right after sterilization. Timepoint 0.5 correspond to the results of TE dosage after an accelerated stability stress cycle (i.e. three repetition of alternatively 5° C./50° C., 48 h/48 h). Timepoints 1, 3 and 6 correspond to the results of TE dosage after 1 month, 3 months and 6 months storage at 40° C./25% RH.
For the three tested solutions containing different forms of selenium, the selenium is mixed with other TE (Zn, Cu, Mn, F, I, Mo, Cr, Fe), which were introduced as chloride salts. The solutions were acidified to pH 2.2 using malic acid and underwent terminal heat sterilization prior to storage.

[3] = Pediaven, trace elements in the glucose chamber; announced July 2014; cited from earlier work
[4] = cited from earlier work
[5] = mixed with other TE, pH 2.2 with malic acid, terminal heat sterilization
[6] = mixed with other TE, pH 2.2 with malic acid, terminal heat sterilization, storage at 40° C./25% RH, selenate and selenomethionine compared with selenite

Structure (SMILES)	Stability in solution [1]	Selenium concentration during storage [2, 5]	Stability of selenium after storage for three months [2, 6]	other results
O=[Se](=O)(O)O [sodium selenate]	remained stable	remained stable	better stability	–
O=[Se]=O [selenium dioxide]	–	–	–	Presence of selenium in the finished product [3]: absent in the finished product
O=[Se](O)O [selenite, reference compound]	–	–	lack of stability	–
[Na+].[Na+].[O]=[Mo](=[O])([O-])[O-] [Na2MoO4, 2H2O, sodium molybdate]	–	–	–	Chemical form; Solubility in water [4]: <840 mg/mL
N[C@@H](C[SeH])C(=O)O [selenocysteine]	remained stable	–	–	–
C[Se]CC[C@H](N)C(=O)O [selenomethionine]	–	remained stable	–	Stability of selenium after storage for three months ([2]; pH 2.2): better stability
